Values of other authors as cited in patent US6689384B2, “Stable pergolide mesylate and process for making same” (Teva Pharmaceuticals Industries Ltd., priority 2000, dated 2004).
Structures can show the parent of a compound that is named as a salt.

Assays:
secretion of prolactin = conditions: in humans
[1] = system: serum concentrations of growth hormone; conditions: in humans
[2] = system: serum concentrations of luteinizing hormone; conditions: in humans
[3] = oral administration, 14C radio-labeled

SMILES	secretion of prolactin (secretion of prolactin)	serum concentrations of growth hormone [1]	serum concentrations of luteinizing hormone [2]	administered radioactivity recovered from expired CO2 [3] [%]	administered radioactivity recovered from the urine [3]	bound to plasma proteins (plasma proteins)
CCCN1CC(CSC)CC2c3cccc4[nH]cc(c34)CC21 (stereo not drawn) [Pergolide mesylate, 8(beta)-[(Methylthio)methyl]-6-propylergoline monomethanesulfonate]	inhibits	transient rise	decrease	~5	approximately 55%	
CCCN1C[C@H](CSC)C[C@@H]2c3cccc4[nH]cc(c34)C[C@H]21 [Pergolide]						approximately 90%
